The experiment concerns the target T1, wild-type HIV-1 protease (Human immunodeficiency virus type 1 group M subtype B, UniProt P04585).
T1 construct: Escherichia coli expressed wild-type HIV-1 protease protein; made in house; host or cells: Escherichia coli
Put plainly: Assay for Inhibition of Microbial Expressed HIV Protease. The conditions noted are these: Escherichia coli expressed wild-type HIV-1 protease, peptide substrate cleavage; mean of at least two independent experiments. The experiment is classed as biochemical. The gist of the method:
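E. coli-expressed wild-type HIV-1 protease (20 pM) was preincubated with inhibitor for 30 min at room temperature in 50 mM sodium acetate pH 5.5, 100 mM NaCl, 0.1% BSA. It was then reacted with 400 μM peptide substrate for 1 h at 30 °C. Cleavage product was quantified by LC-MS/MS, and IC50 is the mean of at least two experiments.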

SMILES strings stand for the structures.

As to `CN(Cc1ccccc1Cl)C(=O)c1cccc(CN2C(=N)NC(c3ccc(F)cc3)(c3ccc(F)cc3)C2=O)c1` [Example 66, 3-{[4,4-bis(4-fluorophenyl)-2-imino-5-oxoimidazolidin-1-yl]methyl}-N-(2-chlorobenzyl)-N-methylbenzamide], half-maximal inhibition (IC50) required 90.5 nM. In the case of `N#Cc1ccc(CNC(=O)c2cccc(CN3C(=N)NC(c4ccc(F)cc4)(c4ccc(F)cc4)C3=O)c2)cc1` [Example 67, 3-{[4,4-bis(4-fluorophenyl)-2-imino-5-oxoimidazolidin-1-yl]methyl}-N-(4-cyanobenzyl)benzamide], the half-inhibitory concentration (IC50) came out at 95.2 nM. This IC50 and that of the compound before are within 1.5-fold of each other. To `CN(Cc1cccc(F)c1)C(=O)c1cccc(CN2C(=N)NC(c3ccc(F)cc3)(c3ccc(F)cc3)C2=O)c1` [Example 68, 3-{[4,4-bis(4-fluorophenyl)-2-imino-5-oxoimidazolidin-1-yl]methyl}-N-(3-fluorobenzyl)-N-methylbenzamide] belongs 96.6 nM; to `CC(C)CC1(c2cccc(F)c2)NC(=N)N(Cc2cccc(C(=O)N(C)Cc3ccc(C#N)cc3)c2)C1=O` (stereo not shown) [Example 69, N-(4-cyanobenzyl)-3-{[4-(3-fluorophenyl)-2-imino-4-(2-methylpropyl)-5-oxoimidazolidin-1-yl]methyl}-N-methylbenzamide], 97.1 nM.

In turn, `CC(C)CC1(CC(C)C)NC(=N)N([C@H](C)c2cccc(C(=O)N(C)Cc3ccc(F)cc3)c2)C1=O` [Example 70, N-(4-fluorobenzyl)-3-{(1R)-1-[2-imino-4,4-bis(2-methylpropyl)-5_ oxoimidazolidin-1-yl]ethyl}-N-methylbenzamide] returned an IC50 of 99.1 nM. The compound `CC(C)CC1(c2ccccc2)NC(=N)N(Cc2ccc(Cl)c(C(=O)NCc3ccc(C#N)cc3)c2)C1=O` (stereo not shown) [Example 71, 2-chloro-N-(4-cyanobenzyl)-5-{[2-imino-4-(2-methylpropyl)-5-oxo-4-phenylimidazolidin-1-yl]methyl}benzamide] returned an IC50 of 8.19 nM. As for `CC(C)CC1(c2ccccc2)NC(=N)N(Cc2ccc(Cl)c(C(=O)NCc3ccc(F)cc3)c2)C1=O` (stereo not shown) [Example 72, 2-chloro-N-(4-fluorobenzyl)-5-{[2-imino-4-(2-methylpropyl)-5-oxo-4-phenylimidazolidin-1-yl]methyl}benzamide], the half-inhibitory concentration (IC50) is 9.5 nM. Turning to `N=C1NC(c2ccccc2)(c2ccccc2)C(=O)N1Cc1ccc(Cl)c(C(=O)NCc2cnccn2)c1` [Example 73, 2-chloro-5-[(2-imino-5-oxo-4,4-diphenylimidazolidin-1-yl)methyl]-N-(pyrazin-2-ylmethyl)benzamide], half-maximal inhibition (IC50) required 11 nM. Take `N#Cc1ccc(CNC(=O)c2cc(CN3C(=N)NC(c4ccccc4)(c4ccccc4)C3=O)ccc2Cl)cc1` [Example 74, 2-chloro-N-(4-cyanobenzyl)-5-[(2-imino-5-oxo-4,4-diphenylimidazolidin-1-yl)methyl]benzamide]: the half-maximal inhibitory concentration (IC50) was 11.4 nM. Compound `CC(C)CC1(c2ccccc2)NC(=N)N(Cc2ccc(Cl)c(C(=O)NCc3cnccn3)c2)C1=O` (stereo not shown) [Example 75, 2-chloro-5-{[2-imino-4-(2-methylpropyl)-5-oxo-4-phenylimidazolidin-1-yl]methyl}-N-(pyrazin-2-ylmethyl)benzamide] yielded a concentration for half-maximal inhibition (IC50) of 31.3 nM. Compared with the last compound, the IC50 is about 2.7-fold higher. To `CC(C)CC1(c2ccccc2)NC(=N)N(Cc2ccc(Cl)c(C(=O)N[C@H](C)c3ccc(F)cc3)c2)C1=O` (stereo partly drawn) [Example 76, 2-chloro-N-[(1R)-1-(4-fluorophenyl)ethyl]-5-{[2-imino-4-(2-methylpropyl)-5-oxo-4-phenylimidazolidin-1-yl]methyl}benzamide] belongs 40.1 nM; to `COc1ccc(CN2C(=N)NC(c3ccccc3)(c3ccccc3)C2=O)cc1C(=O)N(C)[C@H](C)c1ccccc1` [Example 77, 5-[(2-imino-5-oxo-4,4-diphenylimidazolidin-1-yl)methyl]-2-methoxy-N-methyl-N-[(1R)-1-phenylethyl]benzamide], 43.4 nM; to `COc1ccc(CN2C(=N)NC(c3ccccc3)(c3ccccc3)C2=O)cc1C(=O)N(C)Cc1ccc(F)cc1` [Example 78, N-(4-fluorobenzyl)-5-[(2-imino-5-oxo-4,4-diphenylimidazolidin-1-yl)methyl]-2-methoxy-N-methylbenzamide], 53.6 nM. `C[C@H](c1ccc(F)cc1)N(C)C(=O)c1cncc(CN2C(=N)NC(c3ccc(F)cc3)(c3ccc(F)cc3)C2=O)c1` [Example 79, 5-{[4,4-bis(4-fluorophenyl)-2-imino-5-oxoimidazolidin-1-yl]methyl}-N-[(1R)-1-(4-fluorophenyl)ethyl]-N-methylpyridine-3-carboxamide] showed an IC50 of 13.7 nM.

On to `CN(Cc1ccc(F)cc1)C(=O)c1cncc(CN2C(=N)NC(c3ccc(F)cc3)(c3ccc(F)cc3)C2=O)c1` [Example 80, 5-{[4,4-bis(4-fluorophenyl)-2-imino-5-oxoimidazolidin-1-yl]methyl}-N-(4-fluorobenzyl)-N-methylpyridine-3-carboxamide], for which it took 15.4 nM to reach half-maximal inhibition (IC50). To `CN(Cc1ccc(Cl)cc1)C(=O)c1cncc(CN2C(=N)NC(c3ccc(F)cc3)(c3ccc(F)cc3)C2=O)c1` [Example 81, 5-{[4,4-bis(4-fluorophenyl)-2-imino-5-oxoimidazolidin-1-yl]methyl}-N-(4-chlorobenzyl)-N-methylpyridine-3-carboxamide] belongs 22.7 nM. On to `CN(Cc1ccc(Cl)cn1)C(=O)c1cncc(CN2C(=N)NC(c3ccc(F)cc3)(c3ccc(F)cc3)C2=O)c1` [Example 82, 5-{[4,4-bis(4-fluorophenyl)-2-imino-5-oxoimidazolidin-1-yl]methyl}-N-[(5-chloropyridin-2-yl)methyl]-N-methylpyridine-3-carboxamide], for which the 50% inhibitory concentration (IC50) stood at 43.7 nM.

Compound `CC(C)CCC1(c2ccccc2)NC(=N)N(Cc2cncc(C(=O)N(C)Cc3ccc(C#N)cc3)c2)C1=O` (stereo not shown) [Example 83, N-(4-cyanobenzyl)-5-{[2-imino-4-(3-methylbutyl)-5-oxo-4-phenylimidazolidin-1-yl]methyl}-N-methylpyridine-3-carboxamide] had an IC50 of 50.4 nM. The IC50 values of the last two compounds are within 1.5-fold of each other.

`CC(C)CC1(c2ccccc2)NC(=N)N(Cc2cncc(C(=O)N(C)Cc3ccc(C#N)cc3)c2)C1=O` (stereo not shown) [Example 84, N-(4-cyanobenzyl)-5-{[2-imino-4-(2-methylpropyl)-5-oxo-4-phenylimidazolidin-1-yl]methyl}-N-methylpyridine-3-carboxamide]: the IC50 is 93 nM. To `CN(Cc1ccc(C#N)cc1)C(=O)c1ccnc(CN2C(=N)NC(c3ccccc3)(c3ccccc3)C2=O)c1` [Example 85, N-(4-cyanobenzyl)-2-[(2-imino-5-oxo-4,4-diphenylimidazolidin-1-yl)methyl]-N-methylpyridine-4-carboxamide] belongs 5.4 nM. As to `CN(Cc1ccc(Cl)cc1)C(=O)c1ccnc(CN2C(=N)NC(c3ccccc3)(c3ccccc3)C2=O)c1` [Example 86, N-(4-chlorobenzyl)-2-[(2-imino-5-oxo-4,4-diphenylimidazolidin-1-yl)methyl]-N-methylpyridine-4-carboxamide], the IC50 turned out to be 7.72 nM. On to `CC(C)CC1(c2ccccc2)NC(=N)N(Cc2cc(C(=O)N(C)Cc3ccc(C#N)cc3)ccn2)C1=O` (stereo not shown) [Example 87, N-(4-cyanobenzyl)-2-{[2-imino-4-(2-methylpropyl)-5-oxo-4-phenylimidazolidin-1-yl]methyl}-N-methylpyridine-4-carboxamide], for which the IC50 is 15.5 nM.

The values above are taken from patent US20200261421A1, “HETEROCYCLIC COMPOUNDS AS HIV PROTEASE INHIBITORS” (Merck Sharp & Dohme Corp., priority 2016, published 2020).
